Assay results taken from patent US7625948B2, “Ester compound and medicinal use thereof” (Japan Tobacco Inc., priority 2002, dated 2009).

What was measured:
[1] = target: T1, Microsomal triglyceride transfer protein (MTP) from bovine liver (Bos taurus, UniProt P55156); assay: Test Example 1: inhibition of interliposomal triglyceride (TG) transfer activity by MTP (also used for metabolites in Test Example 8); assay type: biochemical; conditions: MTP-mediated 14C-triolein transfer between liposomes, 37° C., one hour; read-out: Test Example 1 MTP inhibition IC50
T1 construct: from tissue; host or cells: bovine liver
T1 sequence (P55156 12-887): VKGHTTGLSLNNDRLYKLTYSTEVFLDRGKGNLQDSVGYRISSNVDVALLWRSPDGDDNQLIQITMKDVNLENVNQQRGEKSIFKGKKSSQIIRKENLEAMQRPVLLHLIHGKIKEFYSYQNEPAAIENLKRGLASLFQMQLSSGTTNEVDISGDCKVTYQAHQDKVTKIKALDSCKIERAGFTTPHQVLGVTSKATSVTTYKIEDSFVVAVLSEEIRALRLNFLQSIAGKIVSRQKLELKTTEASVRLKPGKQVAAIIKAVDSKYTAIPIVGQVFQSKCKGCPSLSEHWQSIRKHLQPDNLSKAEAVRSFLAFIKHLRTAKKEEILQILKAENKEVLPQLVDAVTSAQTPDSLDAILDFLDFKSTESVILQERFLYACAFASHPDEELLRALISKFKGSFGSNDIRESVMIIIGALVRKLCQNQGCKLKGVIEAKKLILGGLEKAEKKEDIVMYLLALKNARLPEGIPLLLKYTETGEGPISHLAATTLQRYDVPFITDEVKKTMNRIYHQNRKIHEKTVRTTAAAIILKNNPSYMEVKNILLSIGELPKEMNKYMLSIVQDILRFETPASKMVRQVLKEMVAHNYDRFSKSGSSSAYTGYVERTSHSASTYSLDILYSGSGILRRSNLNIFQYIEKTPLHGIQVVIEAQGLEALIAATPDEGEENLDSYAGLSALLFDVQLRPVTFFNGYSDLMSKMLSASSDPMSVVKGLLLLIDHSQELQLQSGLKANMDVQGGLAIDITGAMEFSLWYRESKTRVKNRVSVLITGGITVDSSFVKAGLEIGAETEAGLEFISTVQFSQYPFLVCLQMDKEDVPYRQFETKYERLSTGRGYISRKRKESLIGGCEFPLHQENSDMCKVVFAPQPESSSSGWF
T1 sequence (P05307 21-510 partner): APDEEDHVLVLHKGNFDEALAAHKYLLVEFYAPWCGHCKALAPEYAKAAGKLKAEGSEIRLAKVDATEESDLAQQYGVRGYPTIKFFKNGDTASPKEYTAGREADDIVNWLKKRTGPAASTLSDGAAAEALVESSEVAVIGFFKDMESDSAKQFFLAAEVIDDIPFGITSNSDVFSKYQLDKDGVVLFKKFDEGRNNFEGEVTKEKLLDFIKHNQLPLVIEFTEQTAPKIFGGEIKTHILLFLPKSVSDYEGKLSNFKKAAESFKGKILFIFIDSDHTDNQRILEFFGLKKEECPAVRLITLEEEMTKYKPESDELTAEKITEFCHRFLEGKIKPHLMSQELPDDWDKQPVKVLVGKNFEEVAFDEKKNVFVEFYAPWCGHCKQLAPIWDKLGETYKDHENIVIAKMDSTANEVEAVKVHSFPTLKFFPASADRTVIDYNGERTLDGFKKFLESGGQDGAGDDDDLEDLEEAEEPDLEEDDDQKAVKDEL
Description: Inhibition of Interliposomal Triglyceride (TG) Transfer Activity by MTP
Microsomal triglyceride transfer protein (MTP) from bovine liver was partially purified in such a way described below. A buffer (50 mM Tris, 250 mM sucrose, 1 mM EDTA, 0.02% NaN3 (pH 7.4)) for making a homogenate preparation was added to bovine liver, and the mixture was homogenated under ice-cooling, then centrifuged at 10,000×g (4° C., 30 minutes). The supernatant was adjusted to pH 5.1 with hydrochloric acid, and stirred for 30 minutes. The solution was further centrifuged at 10,000×g (4° C., 30 minutes), and 1 mM Tris buffer was added to the precipitated residue, and the mixture was adjusted to pH 8.6 with sodium hydroxide. After addition of 2.7M ammonium sulfate solution, the mixture was stirred for 30 minutes, then centrifuged at 10,000×g (4° C., 40 minutes). The resulting supernatant was served as a crude extraction fraction of MTP and stored at −80° C. under freezing. In its practical use, the crude extraction fraction of MTP was purified by column chromatography on diethylaminoethyl (DEAE) Sepharose using FPLC (Fast Performance Liquid Chromatography) system, and the purified MTP was used for the test.
Small unilamellar-vesicle (SUV) liposome (donor, 0.25 mol % triolein, 5 mol % cardiolipin) labeled with ^14C-triolein and non-labeled SUV liposome (acceptor, 0.25 mol % triolein) were prepared. A fixed amount of donor and acceptor, and MTP were mixed with a sample dissolved in DMSO or with DMSO. The mixture was incubated in a 15 mM Tris hydrochloride buffer (pH 7.4) containing 40 mM sodium chloride, 1 mM EDTA (ethylenediaminetetraacetic acid), 0.02% NaN3 and 0.5% bovine serum albumin at 37° C. for one hour. After completion of the incubation, a suspension of DEAE cellulose (50% v/v) in 15 mM Tris hydrochloride buffer (pH 7.4) was added to the above solution, and the mixture was centrifuged to separate the donor and the acceptor. The radioactivity in the acceptor was measured by liquid scintillation counter. The value obtained by subtracting the radioactivity in the blank from the amount of radioactivity in the acceptor of a DMSO group was determined as MTP-mediated TG transfer activity, and it was compared with the value obtained by subtracting the radioactivity in the blank from the radioactivity in a sample group. The blank was prepared by adding 15 mM Tris-HCl buffer (pH 7.4) in place of MTP. Inhibition rate (%) was calculated from the values obtained according to the following equation.
Inhibition rate (%)=100×(1 minus ((radioactivity of sample group minus radioactivity of blank group)/(radioactivity of DMSO group minus radioactivity of blank group))).
50% Inhibition rate (IC50) was determined on the basis of the above equation.
Inhibitory Activity on MTP and apo B Secretion Inhibition by Metabolites
In a similar manner to Test Examples 1 and 2, the activity of metabolites was assayed.

[2] = test system: HepG2 cells; assay: Test Example 2: inhibition of apolipoprotein B secretion from HepG2 cells, ELISA (also used for metabolites in Test Example 8); assay type: cell-based; conditions: Homo sapiens, 24 hours, apo B in supernatant by ELISA, read-out: Test Example 2 Inhibition of apo B secretion IC50
Outline: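 HepG2 cells cultured 24 h, then exposed 24 h to compounds or metabolites in medium with 0.5% DMSO. Secreted apo B in supernatant quantified by sandwich ELISA (HRP, ABTS, 405 nm) against purified human apo B standard; % inhibition vs DMSO group, IC50 derived.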

## CCOC(=O)C(COC(=O)Cc1ccc(NC(=O)c2ccccc2-c2ccc(C(F)(F)F)cc2)cc1)(C(=O)OCC)c1ccccn1 [Example 1-37]
[1]
  IC50: 3.5 nM
[2]
  IC50: 47 nM

## CCOC(=O)C(COC(=O)Cc1ccc(NC(=O)c2ccccc2-c2ccc(C(F)(F)F)cc2)cc1)(C(=O)OCC)c1cccnc1 [Example 1-38]
[1]
  IC50: 6 nM
[2]
  IC50: 320 nM

## CCNC(=O)C(COC(=O)Cc1ccc(OC(=O)c2ccccc2-c2ccc(C(F)(F)F)cc2)cc1)(C(=O)NCC)c1ccccc1 [Example 1-39]
[1]
  IC50: 0.66 nM
[2]
  IC50: 160 nM

## CCOC(=O)C(COC(=O)Cc1ccc(NC(=O)c2ccccc2-c2ccc(C(F)(F)F)cc2)c(C(F)(F)F)c1)(C(=O)OCC)c1ccccc1 [Example 1-40]
[1]
  IC50: 6.9 nM
[2]
  IC50: 2.1 nM

## CCCCNC(=O)C(COC(=O)Cc1ccc(NC(=O)c2ccccc2-c2ccc(C(F)(F)F)cc2)cc1)(C(=O)NCCCC)c1ccccc1 [Example 1-42]
[1]
  IC50: 4.4 nM
[2]
  IC50: 35 nM

## CCOC(=O)C(COC(=O)Cc1ccc(NC(=O)c2ccccc2-c2ccc(OC)cc2)cc1)(C(=O)OCC)c1ccccc1 [Example 1-47]
[1]
  IC50: 4.5 nM
[2]
  IC50: 750 nM

## CCNC(=O)C(CCOC(=O)Cc1ccc(NC(=O)c2ccccc2-c2ccc(C(F)(F)F)cc2)cc1)(C(=O)NCC)c1ccccc1 [Example 1-48]
[1]
  IC50: 3.2 nM
[2]
  IC50: 9.7 nM

## CCCNC(=O)C(CCOC(=O)Cc1ccc(NC(=O)c2ccccc2-c2ccc(C(F)(F)F)cc2)cc1)(C(=O)NCCC)c1ccccc1 [Example 1-49]
[1]
  IC50: 20 nM
[2]
  IC50: 5.3 nM

## CCNC(=O)C(COC(=O)Cc1ccc(NC(=O)c2ccccc2Oc2ccccc2)cc1)(C(=O)NCC)c1ccccc1 [Example 1-51]
[1]
  IC50: 0.96 nM
[2]
  IC50: 530 nM

## CCCCOc1ccccc1C(=O)Nc1ccc(CC(=O)OCC(C(=O)NCC)(C(=O)NCC)c2ccccc2)cc1 [Example 1-52]
[1]
  IC50: 10 nM
[2]
  IC50: 690 nM

## CCOC(=O)C(COC(=O)Cc1ccc(NC(=O)c2ccccc2-c2cccc(C(F)(F)F)c2)cc1)(C(=O)OCC)c1ccccc1 [Example 1-53]
[1]
  IC50: 0.43 nM
[2]
  IC50: 860 nM

## CCCOC(=O)C(COC(=O)Cc1ccc(NC(=O)c2ccccc2-c2ccc(C(F)(F)F)cc2)cc1)(C(=O)OCCC)c1ccccc1 [Example 1-62]
[1]
  IC50: 5 nM
[2]
  IC50: 46 nM

## CC(C)COC(=O)C(COC(=O)Cc1ccc(NC(=O)c2ccccc2-c2ccc(C(F)(F)F)cc2)cc1)(C(=O)OCC(C)C)c1ccccc1 [Example 1-63]
[1]
  IC50: 16 nM
[2]
  IC50: 90 nM

## CC(C)CCNC(=O)C(COC(=O)Cc1ccc(NC(=O)c2ccccc2-c2ccc(C(F)(F)F)cc2)cc1)(C(=O)NCCC(C)C)c1ccccc1 [Example 1-67]
[1]
  IC50: 27 nM
[2]
  IC50: 28 nM

## CCNC(=O)C(COC(=O)Cc1ccc(NC(=O)c2ccccc2C2CCCCC2)cc1)(C(=O)NCC)c1ccccc1 [Example 1-69]
[1]
  IC50: 9.1 nM
[2]
  IC50: 90 nM

## CCNC(=O)C(COC(=O)Cc1ccc(NC(=O)c2ccccc2-c2ccc(Cl)cc2)cc1)(C(=O)NCC)c1ccccc1 [Example 1-70]
[1]
  IC50: 1.6 nM
[2]
  IC50: 270 nM

## CCNC(=O)C(COC(=O)Cc1ccc(NC(=O)c2ccccc2-c2ccc(Cl)c(Cl)c2)cc1)(C(=O)NCC)c1ccccc1 [Example 1-71]
[1]
  IC50: 1.8 nM
[2]
  IC50: 120 nM

## CCNC(=O)C(COC(=O)Cc1ccc(NC(=O)c2ccccc2-c2ccc(C(F)(F)F)cc2)c(C(=O)N(C)C)c1)c1ccccc1 (stereo not shown) [Example 2-21]
[1]
  IC50: 1.8 nM
[2]
  IC50: 8.9 nM

## CCOC(=O)C(COC(=O)Cc1ccc(NC(=O)c2ccccc2-c2ccc(C(F)(F)F)cc2)c(C(=O)N2CCCCC2)c1)(C(=O)OCC)c1ccccc1 [Example 2-23]
[1]
  IC50: 2.7 nM
[2]
  IC50: 0.61 nM

## CCOC(=O)C(COC(=O)Cc1ccc(NC(=O)c2ccccc2-c2ccc(C(F)(F)F)cc2)c(OC)c1)(C(=O)OCC)c1ccccc1 [Example 3-4]
[1]
  IC50: 2.1 nM
[2]
  IC50: 13 nM

## CCOC(=O)C(COC(=O)Cc1ccc(NC(=O)c2ccccc2-c2ccc(C(F)(F)F)cc2)c(OCc2ccccc2)c1)(C(=O)OCC)c1ccccc1 [Example 3-14]
[1]
  IC50: 13 nM
[2]
  IC50: 64 nM

## CCOC(=O)C(CCOC(=O)Cc1cccc(NC(=O)c2ccccc2-c2ccc(C(F)(F)F)cc2)c1C)(C(=O)OCC)c1ccccc1 [Example 5, 2-[2-(2-{2-methyl-3-[(4′-trifluoromethylbiphenyl-2-carbonyl)amino]phenyl}acetoxy)ethyl]-2-phenylmalonic acid diethyl ester]
[1]
  IC50: 3.1 nM
[2]
  IC50: 19 nM

## CCOC(=O)C(COC(=O)Cc1cccc(NC(=O)c2ccccc2-c2ccc(C(F)(F)F)cc2)c1)(C(=O)OCC)c1ccccc1 [Example 5-2]
[1]
  IC50: 66.5 nM
[2]
  IC50: 875 nM

## CCOC(=O)C(CCOC(=O)Cc1cccc(NC(=O)c2ccccc2-c2ccc(C(F)(F)F)cc2)c1)(C(=O)OCC)c1ccccc1 [Example 5-3]
[1]
  IC50: 6.2 nM
[2]
  IC50: 86.5 nM

## CCNC(=O)C(CCOC(=O)Cc1cccc(NC(=O)c2ccccc2-c2ccc(C(F)(F)F)cc2)c1)(C(=O)NCC)c1ccccc1 [Example 5-4]
[1]
  IC50: 2.4 nM
[2]
  IC50: 57 nM

## CCCNC(=O)C(CCOC(=O)Cc1cccc(NC(=O)c2ccccc2-c2ccc(C(F)(F)F)cc2)c1)(C(=O)NCCC)c1ccccc1 [Example 5-5]
[1]
  IC50: 4.5 nM
[2]
  IC50: 5 nM

## CCOC(=O)C(CCOC(=O)Cc1ccc(C)c(NC(=O)c2ccccc2-c2ccc(C(F)(F)F)cc2)c1)(C(=O)OCC)c1ccccc1 [Example 5-6]
[1]
  IC50: 3.9 nM
[2]
  IC50: 260 nM

## CC(C)NC(=O)C(CCOC(=O)Cc1cccc(NC(=O)c2ccccc2-c2ccc(C(F)(F)F)cc2)c1)(C(=O)NC(C)C)c1ccccc1 [Example 5-8]
[1]
  IC50: 14 nM
[2]
  IC50: 340 nM

## CCNC(=O)C(CCCOC(=O)Cc1cccc(NC(=O)c2ccccc2-c2ccc(C(F)(F)F)cc2)c1C)(C(=O)NCC)c1ccccc1 [Example 5-10]
[1]
  IC50: 6.2 nM
[2]
  IC50: 300 nM
